Entries after “also recorded” stand apart in the source; their conditions may differ. Like-named read-outs stand apart in the source and are kept apart here.
How the values were obtained:
[1] = system: human prostate cancer cells LNCaP; test: XXT cell viability assay, 72 hours; assay type: cell-based
Method: After 72 hours, an XXT assay (Scudievo, et al., Cancer Research, 48:4827 (1988)) indicating cell viability was carried out.

androgen receptor = molecular target: T1, androgen receptor (Homo sapiens, UniProt P10275, T878A); test: Androgen receptor remaining in LNCaP cell lysate, Western Blot; assay type: cell-based; conditions: for Percent Androgen Receptor Remaining / Percent of the androgen receptor remaining / Effect on the AR: LNCaP; for Percent Androgen Receptor Remaining: Table 7 controls, incubation time not given; for Percent of the androgen receptor remaining: 48 hours; for Effect on the AR: Western Blot; for Suppression of the AR: 3 μM concentration; for Elimination of the AR: 10 μM concentration
T1 construct: endogenous in cells; host or cells: LNCaP human prostate cancer cells
Method: The interaction of the compounds with AR was studied by incubation with LNCaP cells, subsequent cell lysis and the standard Western Blot assay.

[2] = Systemic toxicity, repeated i.p. injection in mice; assay type: in vivo
Method: Systemic toxicity was orientationally evaluated by i.p. injection every 2nd day in mice. […] For BP-34, the corresponding values were 150 mg/kg bw and 300 mg/kg bw.
The maximum tolerated dose should thus be approximately 300 mg/kg. For BP-34, i.p. injections of 100-300 mg/kg produce no mortalities in mice. […] Therefore, the maximum tolerated dose of BP-34 should be approximately 250 mg/kg.

[3] = Tissue distribution 4 hours after intravenous injection in male rats; conditions: 300 g male rats, after 4 hours
[4] = 38° C., 0.5 mg/mL
Method: Compounds were tested for stability in human serum at 38° C. They were dissolved in isopropanol/H2O (95:5), mixed with human serum to a concentration of 0.5 mg/mL, and incubated at 38° C. Serum aliquots were extracted with ethyl acetate and analyzed by HPLC.
(Permadi, H.; Lundgren, B.; Andersson, K.; Sundberg, C.; DePierre, J. W. Effects of perfluoro fatty acids on peroxisome proliferation and mitochondrial size in mouse liver: dose and time factors and effect of chain length. Xenobiotica, 91993) Vol. 23, No. 7, pp.761-70).

[5] = system: prostate and seminal vesicles; test: Weight of prostate and seminal vesicles (secondary sex organs) in rats; assay type: in vivo; conditions: castrated rats supplemented with testosterone propionate
Method: (The dose of 0.1 mg/kg approximates the expected topical daily dose for humans).

[6] = isopropanol/H2O (95:5), 50° C., up to six days
[7] = Cockshott et al. 1990; cited from earlier work

T1 sequence (P10275 whole entry T878A): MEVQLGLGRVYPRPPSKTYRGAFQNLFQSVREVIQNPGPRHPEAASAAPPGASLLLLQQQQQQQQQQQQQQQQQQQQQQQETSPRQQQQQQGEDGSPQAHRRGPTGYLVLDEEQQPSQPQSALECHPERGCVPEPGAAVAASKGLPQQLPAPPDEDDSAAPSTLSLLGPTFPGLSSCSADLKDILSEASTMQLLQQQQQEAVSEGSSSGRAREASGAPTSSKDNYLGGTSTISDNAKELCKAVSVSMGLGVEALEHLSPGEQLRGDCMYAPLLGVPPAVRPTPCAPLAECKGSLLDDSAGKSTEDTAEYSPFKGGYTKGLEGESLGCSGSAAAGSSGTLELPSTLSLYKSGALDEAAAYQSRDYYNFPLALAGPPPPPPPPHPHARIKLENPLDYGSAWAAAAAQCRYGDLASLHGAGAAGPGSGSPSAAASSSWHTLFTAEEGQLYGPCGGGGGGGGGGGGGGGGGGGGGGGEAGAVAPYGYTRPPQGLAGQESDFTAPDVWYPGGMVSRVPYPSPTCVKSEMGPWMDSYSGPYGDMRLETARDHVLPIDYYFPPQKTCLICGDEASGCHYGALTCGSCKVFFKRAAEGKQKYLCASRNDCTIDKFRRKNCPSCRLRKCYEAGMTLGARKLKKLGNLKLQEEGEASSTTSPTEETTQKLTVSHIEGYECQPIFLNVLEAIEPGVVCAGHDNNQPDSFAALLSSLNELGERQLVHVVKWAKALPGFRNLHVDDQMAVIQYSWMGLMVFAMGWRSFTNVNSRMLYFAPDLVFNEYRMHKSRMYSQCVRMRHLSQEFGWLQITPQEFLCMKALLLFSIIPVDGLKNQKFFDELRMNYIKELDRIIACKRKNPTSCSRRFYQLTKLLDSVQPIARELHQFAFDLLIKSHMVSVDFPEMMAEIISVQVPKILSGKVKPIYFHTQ

CC(O)(CNCC(C)(O)C(=O)Nc1ccc(Cl)cc1)C(=O)Nc1ccc(Cl)cc1 (centres unmarked)
melting point: 76 to 78 °C

CC(O)(CN)C(=O)Nc1ccc([N+](=O)[O-])c(C(F)(F)F)c1 (centres unmarked) [BP-34, 4-nitro-3-trifluoromethyl-N-(2-hydroxy-2-methyl-3-aminopropionyl)aniline]
Effect on the LNCaP cells [1]: no effect | Percent Androgen Receptor Remaining (androgen receptor; 3μ Molar conc): 97% | Percent of the androgen receptor remaining (androgen receptor; 3μ Molar conc.): 97% | Percent Androgen Receptor Remaining (androgen receptor; 10μ Molar conc): 98% | Percent of the androgen receptor remaining (androgen receptor; 10μ Molar conc.): 98% | Effect on the AR (androgen receptor): no effect | Dose with morbidity, but not mortality ([2]; i.p.): 300 mg/kg | i.p. doses producing no mortalities ([2]; i.p.): 100 to 300 mg/kg | Dose with morbidity but no mortality ([2]; i.p. every 2nd day): 300 mg/kg bw | Dose given without mortality or morbidity ([2]; i.p. every 2nd day, 5 times): 150 mg/kg bw | MTD ([2]; mouse, in vivo, ip, read-out: Maximum tolerated dose): ~250 mg/kg

CC(O)(CSCC=C([125I])[125I])C(=O)Nc1ccc(C#N)c(C(F)(F)F)c1 (centres unmarked) [BP-554]
Accumulation in the prostate vis-a-vis other tissues [3]: substantial accumulation in the prostate

CC(O)(COC/C=C/[125I])C(=O)Nc1ccc(C#N)c(C(F)(F)F)c1 (centres unmarked) [BP-636]
Accumulation in the prostate vis-a-vis other tissues [3]: substantial accumulation in the prostate

CC(O)(CNC(=S)Nc1ccc(Br)cc1)C(=O)Nc1ccc([N+](=O)[O-])c(C(F)(F)F)c1 (centres unmarked) [BP-668, 3-((((4-bromophenyl)amino)thioxomethyl)amino)-2-hydroxy-2-methyl-N-(4-nitro-3-(trifluoromethyl)phenyl)propanamide]
Percent of the intact compound remaining in human serum ([4]; 24 h): 100% | Percent of the intact compound remaining in human serum ([4]; 48 h): 100% | Percent of the intact compound remaining in human serum ([4]; 6 d): 100% | Suppression of the AR (androgen receptor): important suppression | Elimination of the AR (androgen receptor): practically eliminated the AR | Percent of the androgen receptor remaining (androgen receptor; 3μ Molar conc.): 73% | Percent of the androgen receptor remaining (androgen receptor; 10μ Molar conc.): 0% | Reduction of secondary sex organs' weight ([5]; 0.1 mg/kg): did not reduce | melting point: 192 to 195 °C | Change via HPLC in accelerated stability study [6]: no change was observed

CC(O)(CNCC(C)(O)C(=O)Nc1ccc([N+](=O)[O-])c(C(F)(F)F)c1)C(=O)Nc1ccc([N+](=O)[O-])c(C(F)(F)F)c1 (centres unmarked) [BP-673, 2-hydroxy-3-((2-hydroxy-2-(N-(4-nitro-3-(trifluoromethyl)phenyl)carbamoyl)propyl)amino)-2-methyl-N-(4-nitro-3-(trifluoromethyl)phenyl)propionamide]
Percent of the intact compound remaining in human serum ([4]; 24 h): 100% | Percent of the intact compound remaining in human serum ([4]; 48 h): 100% | Percent of the intact compound remaining in human serum ([4]; 6 d): 100% | Suppression of the AR (androgen receptor): important suppression | Elimination of the AR (androgen receptor): practically eliminated the AR | Percent of the androgen receptor remaining (androgen receptor; 3μ Molar conc.): 74% | Percent of the androgen receptor remaining (androgen receptor; 10μ Molar conc.): 3% | Change via HPLC in accelerated stability study [6]: no change was observed

CC(O)(CNCCOCCOCCNCC(C)(O)C(=O)Nc1ccc([N+](=O)[O-])c(C(F)(F)F)c1)C(=O)Nc1ccc([N+](=O)[O-])c(C(F)(F)F)c1 (centres unmarked) [BP-676]
Percent of the androgen receptor remaining (androgen receptor; 3μ Molar conc.): 64% | Percent of the androgen receptor remaining (androgen receptor; 10μ Molar conc.): 20%

CCCNC(=S)Nc1ccc(C#N)c(C(F)(F)F)c1 [BP-735, N-(3-trifluoromethyl-4-cyanophenyl), N′-propyl thiourea]
Suppression of the AR (androgen receptor): important suppression | Elimination of the AR (androgen receptor): practically eliminated the AR | Percent of the androgen receptor remaining (androgen receptor; 3μ Molar conc.): 45% | Percent of the androgen receptor remaining (androgen receptor; 10μ Molar conc.): 1%

CC(O)(CNC(=O)Nc1ccc(I)cc1)C(=O)Nc1ccc([N+](=O)[O-])c(C(F)(F)F)c1 (centres unmarked) [BP-754]
Percent of the androgen receptor remaining (androgen receptor; 3μ Molar conc.): 28% | Percent of the androgen receptor remaining (androgen receptor; 10μ Molar conc.): 14%

CC(O)(CS(=O)(=O)c1ccc(F)cc1)C(=O)Nc1ccc(C#N)c(C(F)(F)F)c1 (centres unmarked) [Bicalutamide, reference compound]
Reduction of secondary sex organs' weight ([5]; 0.5 mg/kg): about 20% | Peak serum levels as % of the dose, reported [7]: 0.03%

CC(C)(O)C(=O)Nc1ccc([N+](=O)[O-])c(C(F)(F)F)c1 [Hydroxyflutamide, reference compound]
Percent Androgen Receptor Remaining (androgen receptor; 3μ Molar conc): 98% | Percent of the androgen receptor remaining (androgen receptor; 3μ Molar conc.): 98% | Percent Androgen Receptor Remaining (androgen receptor; 10μ Molar conc): 94% | Percent of the androgen receptor remaining (androgen receptor; 10μ Molar conc.): 94% | Effect on the AR (androgen receptor): have not shown any significant effect on the AR; also recorded: have not shown any significant suppression of the AR
